Assays:
Details in all cases: compound at 10 μM
Human κ-Opioid (KOP) = target: T1, Human κ-Opioid (KOP) (Homo sapiens, UniProt P41145); assay: Radioligand binding, human κ-opioid (KOP) membranes, filtration, [3H]-Diprenorphine
T1 construct: purchased Perkin Elmer Biosignal
In short: (§1)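 Membranes from cloned human receptors were incubated with compound and radioligand for 1 hour at room temperature. Bound ligand was collected on 0.3% PEI-soaked filters, washed with cold 50 mM Tris-HCl pH 7.4, and counted by scintillation. Percent inhibition was computed against DMSO totals and reference-ligand nonspecific wells.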

[1] = target: T2, Human melanin-concentrating hormone (MCH1) (Homo sapiens, UniProt Q99705); assay: Radioligand binding, human melanin-concentrating hormone MCH1 membranes, FlashPlate, [125I]-S36057
T2 construct: purchased Perkin Elmer Biosignal
T2 sequence (Q99705 whole entry): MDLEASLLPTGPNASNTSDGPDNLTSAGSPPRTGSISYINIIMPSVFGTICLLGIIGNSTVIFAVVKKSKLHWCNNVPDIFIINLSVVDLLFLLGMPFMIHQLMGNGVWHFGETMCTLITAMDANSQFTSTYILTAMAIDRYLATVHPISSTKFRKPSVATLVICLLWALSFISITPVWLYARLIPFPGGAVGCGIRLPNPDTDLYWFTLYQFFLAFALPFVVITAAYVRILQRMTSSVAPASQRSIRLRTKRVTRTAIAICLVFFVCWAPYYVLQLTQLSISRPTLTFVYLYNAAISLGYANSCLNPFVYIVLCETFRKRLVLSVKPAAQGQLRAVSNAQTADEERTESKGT
In short: (§2)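 Cloned human receptor membranes were coated onto FlashPlate wells and incubated with radioligand and compound (added from a 0.5 mM DMSO daughter plate) for 1 hour at room temperature in the dark. Scintillation counting gave percent inhibition, with DMSO defining total and reference ligand defining non-specific binding.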

[2] = target: T3, Human neuropeptide Y (NPY-Y1) (Homo sapiens, UniProt P25929); assay: Radioligand binding, human neuropeptide Y NPY-Y1 membranes, FlashPlate, [125I]-PYY
T3 construct: purchased Perkin Elmer Biosignal
T3 sequence (P25929 1-384): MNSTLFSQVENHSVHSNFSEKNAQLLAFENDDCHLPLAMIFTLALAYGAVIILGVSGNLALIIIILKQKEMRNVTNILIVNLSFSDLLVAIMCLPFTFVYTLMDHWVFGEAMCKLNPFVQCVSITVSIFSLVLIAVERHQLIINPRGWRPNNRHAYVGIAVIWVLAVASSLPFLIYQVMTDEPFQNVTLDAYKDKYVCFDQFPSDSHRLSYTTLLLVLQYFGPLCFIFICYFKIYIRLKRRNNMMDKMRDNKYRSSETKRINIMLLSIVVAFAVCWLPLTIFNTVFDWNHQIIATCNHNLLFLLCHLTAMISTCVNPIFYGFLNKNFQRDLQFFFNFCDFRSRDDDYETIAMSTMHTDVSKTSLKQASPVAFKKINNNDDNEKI
In short: as §2

Human δ-opioid (DOP) = target: T4, Human δ-opioid (DOP) (Homo sapiens, UniProt P41143); assay: Radioligand binding, human δ-opioid (DOP) membranes, FlashPlate, [3H]-Bremazocine
T4 construct: purchased Perkin Elmer Biosignal
T4 sequence (P41143 whole entry): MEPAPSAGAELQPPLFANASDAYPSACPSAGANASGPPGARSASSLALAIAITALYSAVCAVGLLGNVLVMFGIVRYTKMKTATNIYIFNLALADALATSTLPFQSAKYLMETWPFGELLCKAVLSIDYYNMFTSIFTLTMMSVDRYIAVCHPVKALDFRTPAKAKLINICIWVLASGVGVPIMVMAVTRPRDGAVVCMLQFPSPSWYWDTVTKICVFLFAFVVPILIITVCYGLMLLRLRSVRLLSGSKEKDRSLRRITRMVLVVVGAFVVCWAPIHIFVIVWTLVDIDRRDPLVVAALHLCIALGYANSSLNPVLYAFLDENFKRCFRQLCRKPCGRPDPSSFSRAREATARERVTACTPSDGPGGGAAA
In short: as §2

Human Melanocortin (MC4) = target: T5, Human Melanocortin (MC4) (Homo sapiens, UniProt P32245); assay: Radioligand binding, human melanocortin MC4 membranes, FlashPlate, [125I]-NDP-αMSH
T5 construct: purchased Perkin Elmer Biosignal
T5 sequence (P32245 whole entry): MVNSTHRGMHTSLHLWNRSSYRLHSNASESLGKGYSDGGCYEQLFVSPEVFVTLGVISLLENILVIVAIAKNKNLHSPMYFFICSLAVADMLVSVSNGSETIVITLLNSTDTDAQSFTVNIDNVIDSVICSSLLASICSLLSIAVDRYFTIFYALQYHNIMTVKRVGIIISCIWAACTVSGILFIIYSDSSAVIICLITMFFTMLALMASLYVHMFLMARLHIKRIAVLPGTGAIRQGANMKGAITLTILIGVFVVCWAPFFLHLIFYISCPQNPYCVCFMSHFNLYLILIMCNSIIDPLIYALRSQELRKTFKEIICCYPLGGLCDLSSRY
In short: as §2

Human μ-opioid (MOP) = target: T6, Human μ-opioid (MOP) (Homo sapiens, UniProt P35372); assay: Radioligand binding, human μ-opioid (MOP) membranes, FlashPlate, [3H]-Naloxone
T6 construct: purchased Perkin Elmer Biosignal
T6 sequence (P35372 whole entry): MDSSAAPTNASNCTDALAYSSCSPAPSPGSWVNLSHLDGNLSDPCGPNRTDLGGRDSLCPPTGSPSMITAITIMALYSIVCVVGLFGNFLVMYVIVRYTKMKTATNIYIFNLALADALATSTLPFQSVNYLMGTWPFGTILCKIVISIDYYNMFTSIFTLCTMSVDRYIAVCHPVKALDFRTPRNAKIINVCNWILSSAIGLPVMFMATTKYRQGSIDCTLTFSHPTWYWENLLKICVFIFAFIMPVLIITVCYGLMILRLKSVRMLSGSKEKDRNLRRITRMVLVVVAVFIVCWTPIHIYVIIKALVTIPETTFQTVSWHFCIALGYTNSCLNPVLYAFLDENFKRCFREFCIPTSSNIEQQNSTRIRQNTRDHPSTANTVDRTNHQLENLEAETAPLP
In short: as §2

Mouse urotensin (mUR2) = target: T7, Mouse urotensin (mUR2) (Mus musculus, UniProt Q8VIH9); assay: Radioligand binding, mouse urotensin mUR2 membranes, FlashPlate, [125I]-Urotensin II
T7 construct: purchased Perkin Elmer Biosignal
T7 sequence (Q8VIH9 1-385): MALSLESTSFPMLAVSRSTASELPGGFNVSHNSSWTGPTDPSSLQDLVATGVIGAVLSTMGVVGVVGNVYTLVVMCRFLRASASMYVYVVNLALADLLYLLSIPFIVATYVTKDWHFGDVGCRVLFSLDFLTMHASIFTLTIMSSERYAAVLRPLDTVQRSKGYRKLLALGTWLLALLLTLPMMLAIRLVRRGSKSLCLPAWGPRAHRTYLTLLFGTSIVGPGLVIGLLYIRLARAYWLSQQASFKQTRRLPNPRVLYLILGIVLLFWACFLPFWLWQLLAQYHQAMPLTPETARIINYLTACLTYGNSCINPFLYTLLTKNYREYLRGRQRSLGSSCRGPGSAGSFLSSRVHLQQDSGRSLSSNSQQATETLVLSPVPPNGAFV
In short: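 Cloned mouse urotensin (mUR2) receptor membranes from Perkin Elmer Biosignal were immobilized in FlashPlate microplates using a proprietary coating. Each well got 19.5 μl buffer, then 0.5 μl of DMSO, reference ligand, or compound. Adding 5 μl of [125I]-Urotensin II, diluted to 5× final concentration in binding buffer, started binding. Plates were sealed with TopSeal-A and incubated 1 hour at room temperature in the dark. Wells were counted for 30 seconds each on a TopCount after a 60-second delay, and percentage inhibition was calculated.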

Human Melanocortin (MC3) = target: T8, Human Melanocortin (MC3) (Homo sapiens, UniProt P41968); assay: Radioligand binding, human melanocortin MC3 membranes, FlashPlate, [125I]-NDP-αMSH
T8 construct: purchased Perkin Elmer Biosignal
T8 sequence (P41968 whole entry): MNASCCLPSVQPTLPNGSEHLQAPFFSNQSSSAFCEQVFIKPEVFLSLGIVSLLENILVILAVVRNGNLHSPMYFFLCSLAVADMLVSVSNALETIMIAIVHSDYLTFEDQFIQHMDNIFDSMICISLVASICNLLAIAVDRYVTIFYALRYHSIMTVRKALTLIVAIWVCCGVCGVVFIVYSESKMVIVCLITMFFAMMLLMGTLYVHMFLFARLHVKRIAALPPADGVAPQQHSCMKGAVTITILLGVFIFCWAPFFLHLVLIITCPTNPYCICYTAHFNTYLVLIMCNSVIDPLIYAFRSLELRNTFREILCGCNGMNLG
In short: as §2

Human melanocortin (MC5) = target: T9, Human melanocortin (MC5) (Homo sapiens, UniProt P33032); assay: Radioligand binding, human melanocortin MC5 membranes, FlashPlate, [125I]-NDP-αMSH
T9 construct: purchased Perkin Elmer Biosignal
T9 sequence (P33032 whole entry): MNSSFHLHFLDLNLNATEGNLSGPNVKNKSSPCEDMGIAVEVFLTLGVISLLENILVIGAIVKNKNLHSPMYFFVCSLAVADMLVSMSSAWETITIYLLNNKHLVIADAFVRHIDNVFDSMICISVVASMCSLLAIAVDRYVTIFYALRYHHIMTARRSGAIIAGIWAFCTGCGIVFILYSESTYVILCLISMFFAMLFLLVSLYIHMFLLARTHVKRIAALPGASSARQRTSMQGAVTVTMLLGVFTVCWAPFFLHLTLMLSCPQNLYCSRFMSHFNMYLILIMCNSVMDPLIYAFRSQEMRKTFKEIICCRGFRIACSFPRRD
In short: as §2

Human neurokinin (NK1) = target: T10, Human neurokinin (NK1) (Homo sapiens, UniProt P25103); assay: Radioligand binding, human neurokinin NK1 membranes, filtration, [125I]-Substance P
T10 construct: purchased Perkin Elmer Biosignal
T10 sequence (P25103 whole entry): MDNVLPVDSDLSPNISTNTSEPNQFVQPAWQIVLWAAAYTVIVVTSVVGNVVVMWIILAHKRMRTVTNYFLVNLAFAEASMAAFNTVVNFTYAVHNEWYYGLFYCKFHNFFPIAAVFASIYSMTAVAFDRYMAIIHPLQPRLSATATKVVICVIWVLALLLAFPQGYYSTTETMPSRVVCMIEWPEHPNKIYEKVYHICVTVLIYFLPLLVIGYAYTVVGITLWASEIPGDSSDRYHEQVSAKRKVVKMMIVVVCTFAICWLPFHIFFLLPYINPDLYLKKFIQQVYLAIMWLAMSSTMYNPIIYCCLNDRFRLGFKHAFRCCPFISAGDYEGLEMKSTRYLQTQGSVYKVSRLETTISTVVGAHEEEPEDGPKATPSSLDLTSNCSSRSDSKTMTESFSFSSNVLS
In short: as §1

Human opioid (ORL1) = target: T11, Human opioid (ORL1) (Homo sapiens, UniProt P41146); assay: Radioligand binding, human opioid ORL1 membranes, FlashPlate, [125I]-Nociceptin
T11 construct: purchased Perkin Elmer Biosignal
T11 sequence (P41146 whole entry): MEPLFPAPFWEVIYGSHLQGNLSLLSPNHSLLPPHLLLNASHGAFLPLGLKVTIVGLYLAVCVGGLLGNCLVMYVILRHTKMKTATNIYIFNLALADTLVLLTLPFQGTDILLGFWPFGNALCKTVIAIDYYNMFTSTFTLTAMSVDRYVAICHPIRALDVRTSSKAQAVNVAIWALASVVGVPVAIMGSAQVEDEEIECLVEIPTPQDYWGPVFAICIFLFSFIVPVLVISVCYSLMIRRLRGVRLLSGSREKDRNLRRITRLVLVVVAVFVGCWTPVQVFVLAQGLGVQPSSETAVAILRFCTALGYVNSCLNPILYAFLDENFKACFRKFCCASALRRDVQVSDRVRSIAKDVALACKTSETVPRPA
In short: as §2

T1 sequence (P41145 whole entry): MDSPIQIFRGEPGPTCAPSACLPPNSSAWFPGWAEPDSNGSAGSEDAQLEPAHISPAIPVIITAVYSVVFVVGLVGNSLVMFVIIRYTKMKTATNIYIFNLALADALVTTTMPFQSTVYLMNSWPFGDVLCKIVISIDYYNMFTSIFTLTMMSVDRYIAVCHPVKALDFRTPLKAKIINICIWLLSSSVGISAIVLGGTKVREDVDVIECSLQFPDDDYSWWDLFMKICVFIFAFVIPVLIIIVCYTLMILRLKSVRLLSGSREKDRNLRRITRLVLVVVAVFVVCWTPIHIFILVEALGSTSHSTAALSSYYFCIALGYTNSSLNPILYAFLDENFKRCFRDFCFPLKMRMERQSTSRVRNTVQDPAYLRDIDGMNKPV

Question: Which results are given for `NCCCC(=O)NC1C(OCc2ccc3ccccc3c2)OC(COCc2ccc3ccccc3c2)C(O)C1OCc1ccccc1` (single isomer, unassigned) [compound 465]?
Answer: A2: inhibition of radioligand binding (Human κ-Opioid (KOP); [3H]-Diprenorphine, human KOP membranes): − (“−” indicates less than 50% inhibition at 10 μM); A6: inhibition of radioligand binding ([1]; [125I]-S36057, human MCH1 membranes, 10 µM): − (“−” indicates less than 50% inhibition at 10 μM); A9: inhibition of radioligand binding ([2]; [125I]-PYY, human NPY-Y1 membranes): − (“−” indicates less than 50% inhibition at 10 μM); A1: inhibition of radioligand binding (Human δ-opioid (DOP); [3H]-Bremazocine, human DOP membranes): − (“−” indicates less than 50% inhibition at 10 μM); A4: inhibition of radioligand binding (Human Melanocortin (MC4); [125I]-NDP-αMSH, human MC4 membranes, 10 µM): − (“−” indicates less than 50% inhibition at 10 μM); A7: inhibition of radioligand binding (Human μ-opioid (MOP); [3H]-Naloxone, human MOP membranes): − (“−” indicates less than 50% inhibition at 10 μM); A11: inhibition of radioligand binding (Mouse urotensin (mUR2); [125I]-Urotensin II, mouse mUR2 membranes): − (“−” indicates less than 50% inhibition at 10 μM); A3: inhibition of radioligand binding (Human Melanocortin (MC3); [125I]-NDP-αMSH, human MC3 membranes, 10 µM): − (“−” indicates less than 50% inhibition at 10 μM); A5: inhibition of radioligand binding (Human melanocortin (MC5); [125I]-NDP-αMSH, human MC5 membranes): + (“+” indicates greater than 50% inhibition at 10 μM); A8: inhibition of radioligand binding (Human neurokinin (NK1); [125I]-Substance P, human NK1 membranes): + (“+” indicates greater than 50% inhibition at 10 μM); A10: inhibition of radioligand binding (Human opioid (ORL1); [125I]-Nociceptin, human ORL1 membranes, 10 µM): − (“−” indicates less than 50% inhibition at 10 μM)

Question: `N=C(N)NCCC(=O)N[C@H]1C(OCc2ccc(Cl)cc2)O[C@H](COCc2ccccc2)[C@@H](O)[C@@H]1OCc1ccc(-c2ccccc2)cc1` (stereo partly drawn) [compound 535] was tested. Which “A2: inhibition of radioligand binding, human κ-opioid (KOP)” value (Human κ-Opioid (KOP); [3H]-Diprenorphine) did it give?
Answer: + (“+” indicates greater than 50% inhibition at 10 μM)

Question: And the “A6: inhibition of radioligand binding, human melanin-concentrating hormone (MCH1)” value ([1]; [125I]-S36057)?
Answer: + (“+” indicates greater than 50% inhibition at 10 μM)

Question: And the “A9: inhibition of radioligand binding, human neuropeptide Y (NPY-Y1)” value ([2]; [125I]-PYY)?
Answer: − (“−” indicates less than 50% inhibition at 10 μM)

Question: What about the “A1: inhibition of radioligand binding, human δ-opioid (DOP)” value (Human δ-opioid (DOP); [3H]-Bremazocine, 10 µM) of the same compound?
Answer: + (“+” indicates greater than 50% inhibition at 10 μM)

Question: And the “A4: inhibition of radioligand binding, human melanocortin (MC4)” value (Human Melanocortin (MC4); [125I]-NDP-αMSH)?
Answer: + (“+” indicates greater than 50% inhibition at 10 μM)

Question: And the “A7: inhibition of radioligand binding, human μ-opioid (MOP)” value (Human μ-opioid (MOP); [3H]-Naloxone, 10 µM)?
Answer: + (“+” indicates greater than 50% inhibition at 10 μM)

Question: And the “A11: inhibition of radioligand binding, mouse urotensin (mUR2)” value (Mouse urotensin (mUR2); [125I]-Urotensin II)?
Answer: − (“−” indicates less than 50% inhibition at 10 μM)

Question: What about the “A3: inhibition of radioligand binding, human melanocortin (MC3)” value (Human Melanocortin (MC3); [125I]-NDP-αMSH) of the same compound?
Answer: + (“+” indicates greater than 50% inhibition at 10 μM)

Question: What about the “A5: inhibition of radioligand binding, human melanocortin (MC5)” value (Human melanocortin (MC5); [125I]-NDP-αMSH) of the same compound?
Answer: + (“+” indicates greater than 50% inhibition at 10 μM)

Question: And the “A8: inhibition of radioligand binding, human neurokinin (NK1)” value (Human neurokinin (NK1); [125I]-Substance P)?
Answer: + (“+” indicates greater than 50% inhibition at 10 μM)

Question: And the “A10: inhibition of radioligand binding, human opioid (ORL1)” value (Human opioid (ORL1); [125I]-Nociceptin)?
Answer: − (“−” indicates less than 50% inhibition at 10 μM)

Question: With `COC[C@H]1OC(OCc2ccc(Cl)cc2)[C@H](NC(=O)CCCNC(=N)N)[C@@H](OCc2ccccc2)[C@@H]1O` (stereo partly drawn) [compound 36] as the compound, how does the “A2 radioligand binding inhibition” value (Human κ-Opioid (KOP); human κ-opioid (KOP) membranes) read?
Answer: − (“−” indicates less than 50% inhibition at 10 μM)

Question: And the “A6 radioligand binding inhibition” value ([1]; human MCH1 membranes)?
Answer: − (“−” indicates less than 50% inhibition at 10 μM)

Question: What about the “A9 radioligand binding inhibition” value ([2]; human NPY-Y1 membranes) of the same compound?
Answer: − (“−” indicates less than 50% inhibition at 10 μM)

Question: And the “A1 radioligand binding inhibition” value (Human δ-opioid (DOP); human δ-opioid (DOP) membranes)?
Answer: − (“−” indicates less than 50% inhibition at 10 μM)

Question: And the “A4 radioligand binding inhibition” value (Human Melanocortin (MC4); human melanocortin MC4 membranes)?
Answer: − (“−” indicates less than 50% inhibition at 10 μM)

Question: What about the “A7 radioligand binding inhibition” value (Human μ-opioid (MOP); human μ-opioid (MOP) membranes) of the same compound?
Answer: + (“+” indicates greater than 50% inhibition at 10 μM)

Question: And the “A11 radioligand binding inhibition” value (Mouse urotensin (mUR2); mouse urotensin mUR2 membranes)?
Answer: − (“−” indicates less than 50% inhibition at 10 μM)

Question: What about the “A3 radioligand binding inhibition” value (Human Melanocortin (MC3); human melanocortin MC3 membranes) of the same compound?
Answer: − (“−” indicates less than 50% inhibition at 10 μM)

Question: What about the “A5 radioligand binding inhibition” value (Human melanocortin (MC5); human melanocortin MC5 membranes) of the same compound?
Answer: − (“−” indicates less than 50% inhibition at 10 μM)

Question: What about the “A8 radioligand binding inhibition” value (Human neurokinin (NK1); human neurokinin NK1 membranes) of the same compound?
Answer: + (“+” indicates greater than 50% inhibition at 10 μM)

Question: And the “A10 radioligand binding inhibition” value (Human opioid (ORL1); human ORL1 membranes)?
Answer: − (“−” indicates less than 50% inhibition at 10 μM)

From patent publication US20080009418A1, “Selective Inhibitors” (Alchemia LTD., priority 2004, published 2008)
